According to US12528786B2, “Plasma kallikrein inhibitors” (Merck Sharp & Dohme LLC, priority 2020, dated 2026):

molecular target: T1, Human plasma kallikrein (Homo sapiens, UniProt P03952); assay: Kallikrein Assay (fluorogenic substrate hydrolysis, AFC release); format: biochemical; conditions: purified Human plasma kallikrein 0.5 nM; substrate Acetyl-K—P—R-AFC 100 mM; 50 mM HEPES pH 7.4
T1 construct: yields a heavy chain (371 amino acids) and a light chain (248 amino acids); purchased Enzyme Research Laboratories
T1 sequence (P03952 391-638 limits assumed): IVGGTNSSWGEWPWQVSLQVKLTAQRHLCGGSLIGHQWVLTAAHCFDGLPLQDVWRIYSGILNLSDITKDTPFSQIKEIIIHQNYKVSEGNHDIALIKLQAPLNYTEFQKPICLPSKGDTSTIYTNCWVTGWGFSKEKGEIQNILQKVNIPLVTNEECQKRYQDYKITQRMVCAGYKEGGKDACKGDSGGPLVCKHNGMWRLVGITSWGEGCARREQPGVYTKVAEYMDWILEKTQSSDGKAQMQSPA
T1 sequence (P03952 20-390 partner limits assumed): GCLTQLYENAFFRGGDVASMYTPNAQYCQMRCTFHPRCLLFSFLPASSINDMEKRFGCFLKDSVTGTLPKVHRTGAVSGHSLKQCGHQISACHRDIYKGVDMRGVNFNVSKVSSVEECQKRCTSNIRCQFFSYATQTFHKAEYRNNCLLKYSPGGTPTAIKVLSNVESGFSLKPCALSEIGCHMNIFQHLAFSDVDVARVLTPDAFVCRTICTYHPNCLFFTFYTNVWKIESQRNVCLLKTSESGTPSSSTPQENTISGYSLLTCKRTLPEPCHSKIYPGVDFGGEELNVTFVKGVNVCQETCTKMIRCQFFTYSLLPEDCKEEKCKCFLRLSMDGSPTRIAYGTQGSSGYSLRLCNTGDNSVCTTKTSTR
Protocol: The effectiveness of a compound of the present invention as an inhibitor of Kallikrein can be determined using a relevant purified serine protease, and an appropriate synthetic substrate. The rate of hydrolysis of the chromogenic or fluorogenic substrate by the relevant serine protease was measured both in the absence and presence of compounds of the present invention. Assays were conducted at room temperature or at 37° C. […] A decrease in the rate of fluorescence change in the presence of inhibitor is indicative of enzyme inhibition. Such methods are known to one skilled in the art. The results of this assay are expressed as the half-maximal inhibitory concentrations (IC50), or the inhibitory constant, Ki.
Kallikrein determinations were made in 50 mM HEPES buffer at pH 7.4 containing 150 mM NaCl, 5 mM CaCl2), and 0.1% PEG 8000 (polyethylene glycol; Fisher Scientific). Determinations were made using purified Human plasma kallikrein at a final concentration of 0.5 nM (Enzyme Research Laboratories) and the synthetic substrate, Acetyl-K—P—R-AFC (Sigma #C6608) at a concentration of […].
Activity assays were performed by diluting a stock solution of substrate at least tenfold to a final concentration ≤0.2 Km into a solution containing enzyme or enzyme equilibrated with inhibitor. Times required to achieve equilibration between enzyme and inhibitor were determined in control experiments. The reactions were performed under linear progress curve conditions and fluorescence increase measured at 405 Ex/510 Em nm. Values were converted to percent inhibition of the control reaction (after subtracting 100% Inhibition value). IC50 was determined by inflection point from a four parameter logistic curve fit. Ki was calculated using the Cheng Prusoff equation, Ki=IC50/(1+([S]/Km)).

Structure (SMILES)	IC50 [nM]
COc1cc(C(C)n2cc(C(=O)N[C@H]3C[C@@H](c4cc(Cl)ccc4C#N)C3)nn2)cnc1N1C[C@H]2C[C@H]2C1=O (mixture of isomers) [Example 100, N-((cis)-3-(5-chloro-2-cyanophenyl)cyclobutyl)-1-((R and S)-1-(5-methoxy-6-((1R,5S)-2-oxo-3-azabicyclo[3.1.0]hexan-3-yl)pyridin-3-yl)ethyl)-1H-1,2,3-triazole-4-carboxamide]	2
Cc1c([C@H](C)n2cc(C(=O)N[C@H]3C[C@@H](c4cc(Cl)ccc4C#N)C3)nn2)cnc(N2C[C@H]3C[C@H]3C2=O)c1O (relative stereo) [Example 164, N-((cis)-3-(5-chloro-2-cyanophenyl)cyclobutyl)-1-((S)-1-(5-hydroxy-4-methyl-6-((1R,5S)-2-oxo-3-azabicyclo[3.1.0]hexan-3-yl)pyridin-3-yl)ethyl)-1H-12,3-triazole-4-carboxamide]	46.7
CC(c1cnc(N2C[C@H]3C[C@H]3C2=O)nc1)n1cc(C(=O)N[C@H]2C[C@@H](c3cc(Cl)ccc3C#N)C2)cn1 (single isomer, unassigned) [Example 3, N-((cis)-3-(5-chloro-2-cyanophenyl)cyclobutyl)-1-((R or S)-1-(2-((1R,5S)-2-oxo-3-azabicyclo[3.1.0]hexan-3-yl)pyrimidin-5-yl)ethyl)-1H-pyrazole-4-carboxamide]	6.7
CC(c1cnc(N2C[C@H]3C[C@H]3C2=O)nc1)n1cc(C(=O)N[C@H]2C[C@@H](c3cc(Cl)ccc3C#N)C2)cn1 (single isomer, unassigned) [Example 4, N-((cis)-3-(5-chloro-2-cyanophenyl)cyclobutyl)-1-((S or R)-1-(2-((1R,5S)-2-oxo-3-azabicyclo[3.1.0]hexan-3-yl)pyrimidin-5-yl)ethyl)-1H-pyrazole-4-carboxamide carboxamide]	17.5
Cc1cc([C@H](C)n2cc(C(=O)N[C@H]3C[C@@H](c4cc(Cl)ccc4C#N)C3)cn2)cnc1N1C[C@H]2C[C@H]2C1=O (single isomer, unassigned) [Example 5]	0.6
Cc1cc([C@@H](C)n2cc(C(=O)N[C@H]3C[C@@H](c4cc(Cl)ccc4C#N)C3)cn2)cnc1N1C[C@H]2C[C@H]2C1=O (single isomer, unassigned) [Example 6]	0.7
Cc1cc(N2C[C@H]3C[C@H]3C2=O)ncc1C(C)n1cc(C(=O)N[C@H]2C[C@@](C)(c3cc(Cl)ccc3C#N)C2)cn1 (single isomer, unassigned) [Example 9, N-((cis)-3-(5-chloro-2-cyanophenyl)-3-methylcyclobutyl)-1-((R or S)-1-(4-methyl-6-((1R,5S)-2-oxo-3-azabicyclo[3.1.0]hexan-3-yl)pyridin-3-yl)ethyl)-1H-pyrazole-4-carboxamide]	0.3
Cc1cc(N2C[C@H]3C[C@H]3C2=O)ncc1C(C)n1cc(C(=O)N[C@H]2C[C@@](C)(c3cc(Cl)ccc3C#N)C2)cn1 (single isomer, unassigned) [Example 10, N-((cis)-3-(5-chloro-2-cyanophenyl)-3-methylcyclobutyl)-1-((S or R)-1-(4-methyl-6-((1R,5S)-2-oxo-3-azabicyclo[3.1.0]hexan-3-yl)pyridin-3-yl)ethyl)-1H-pyrazole-4-carboxamide]	3.6
COc1cc(N2C[C@H]3C[C@H]3C2=O)ncc1[C@H](C)n1cc(C(=O)N[C@H]2C[C@@H](c3cc(Cl)ccc3C#N)C2)cn1 (single isomer, unassigned) [Example 11]	0.9
COc1cc(N2C[C@H]3C[C@H]3C2=O)ncc1[C@@H](C)n1cc(C(=O)N[C@H]2C[C@@H](c3cc(Cl)ccc3C#N)C2)cn1 (single isomer, unassigned) [Example 12]	7.7
COc1cc(C(C)n2cc(C(=O)N[C@H]3C[C@@H](c4cc(Cl)ccc4C#N)C3)cn2)cnc1N1C[C@H]2C[C@H]2C1=O (single isomer, unassigned) [Example 13, N-((cis)-3-(5-chloro-2-cyanophenyl)cyclobutyl)-1-((R or S)-1-(5-methoxy-6-((1R,5S)-2-oxo-3-azabicyclo[3.1.0]hexan-3-yl)pyridin-3-yl)ethyl)-1H-pyrazole-4-carboxamide]	1
COc1cc(C(C)n2cc(C(=O)N[C@H]3C[C@@H](c4cc(Cl)ccc4C#N)C3)cn2)cnc1N1C[C@H]2C[C@H]2C1=O (single isomer, unassigned) [Example 14, N-((cis)-3-(5-chloro-2-cyanophenyl)cyclobutyl)-1-((S or R)-1-(5-methoxy-6-((1R,5S)-2-0x0-3-azabicyclo[3.1.0]hexan-3-yl)pyridin-3-yl)ethyl)-1H-pyrazole-4-carboxamide]	2.8
Cc1nn(C(C)c2cnc(N3C[C@H]4C[C@H]4C3=O)nc2)cc1C(=O)N[C@H]1C[C@@H](c2cc(Cl)ccc2C#N)C1 (single isomer, unassigned) [Example 15, N-((cis)-3-(5-chloro-2-cyanophenyl)cyclobutyl)-3-methyl-1-((R or S)-1-(2-((1R,5S)-2-oxo-3-azabicyclo[3.1.0]hexan-3-yl)pyrimidin-5-yl)ethyl)-1H-pyrazole-4-carboxamide]	2.6
Cc1nn(C(C)c2cnc(N3C[C@H]4C[C@H]4C3=O)nc2)cc1C(=O)N[C@H]1C[C@@H](c2cc(Cl)ccc2C#N)C1 (single isomer, unassigned) [Example 16, N-((cis)-3-(5-chloro-2-cyanophenyl)cyclobutyl)-3-methyl-1-((S or R)-1-(2-((1R,5S)-2-oxo-3-azabicyclo[3.1.0]hexan-3-yl)pyrimidin-5-yl)ethyl)-1H-pyrazole-4-carboxamide]	6.7
CC(c1cnc(N2C[C@H]3C[C@H]3C2=O)nc1)n1cc(C(=O)N[C@H]2C[C@@H](c3cc(Cl)ccc3C#N)C2)c(C#N)n1 (single isomer, unassigned) [Example 17, N-((cis)-3-(5-chloro-2-cyanophenyl)cyclobutyl)-3-cyano-1-((R or S)-1-(2-((1R,5S)-2-oxo-3-azabicyclo[3.1.0]hexan-3-yl)pyrimidin-5-yl)ethyl)-1H-pyrazole-4-carboxamide]	5.5
CC(c1cnc(N2C[C@H]3C[C@H]3C2=O)nc1)n1cc(C(=O)N[C@H]2C[C@@H](c3cc(Cl)ccc3C#N)C2)c(C#N)n1 (single isomer, unassigned) [Example 18, N-((cis)-3-(5-chloro-2-cyanophenyl)cyclobutyl)-3-cyano-1-((S or R)-1-(2-((1R,5S)-2-oxo-3-azabicyclo[3.1.0]hexan-3-yl)pyrimidin-5-yl)ethyl)-1H-pyrazole-4-carboxamide]	10.2
Cc1cc(N2C[C@H]3C[C@H]3C2=O)ncc1C(C)n1cc(C(=O)N[C@H]2C[C@@H](c3cc(Cl)ccc3C#N)C2)c(C)n1 (single isomer, unassigned) [Example 19, N-((cis)-3-(5-chloro-2-cyanophenyl)cyclobutyl)-3-methyl-1-((R or S)-1-(4-methyl-6-((1R,5S)-2-oxo-3-azabicyclo[3.1.0]hexan-3-yl)pyridin-3-yl)ethyl)-1H-pyrazole-4-carboxamide]	0.3
Cc1cc(N2C[C@H]3C[C@H]3C2=O)ncc1C(C)n1cc(C(=O)N[C@H]2C[C@@H](c3cc(Cl)ccc3C#N)C2)c(C)n1 (single isomer, unassigned) [Example 20, N-((cis)-3-(5-chloro-2-cyanophenyl)cyclobutyl)-3-methyl-1-((S or R)-1-(4-methyl-6-((1R,5S)-2-oxo-3-azabicyclo[3.1.0]hexan-3-yl)pyridin-3-yl)ethyl)-1H-pyrazole-4-carboxamide]	2.1
